The values that follow come from ChEMBL document CHEMBL2203211, “Isocytosine-based inhibitors of xanthine oxidase: design, synthesis, SAR, PK and in vivo efficacy in rat model of hyperuricemia” (Bioorg Med Chem Lett, 2012).

The source made the active and inactive calls. No cut-off for these calls is given here.

Data set [1] has as its target Xanthine dehydrogenase/oxidase (Homo sapiens, UniProt P47989).
Description: Inhibition of xanthine oxidase using xanthine as substrate at 30 mins by spectrophotometric analysis
Data set [2] deals with Rattus norvegicus. The data set can be described thus: Antihyperuricemic activity in fasted rat assessed as reduction in potassium oxonate-induced uric acid level in serum at 100 mg/kg, ip administered 1 hr post potassium oxonate-challenge relative to vehicle-treated control. In kind it is functional. On the set-up: scale not given: the % may be the effect or the level left. The settings on record: route intraperitoneal.

For data set [3], the system named is Rattus norvegicus. The data set can be described thus: Antihyperuricemic activity in fasted rat assessed as reduction in potassium oxonate-induced uric acid level in serum at 10 mg/kg, po administered 1 hr post potassium oxonate-challenge relative to vehicle-treated control. The class given is functional. Further details: scale not given: the % may be the effect or the level left.

Data set [4] deals with Rattus norvegicus. Nature of the data set: Antihyperuricemic activity in fasted rat assessed as reduction in potassium oxonate-induced uric acid level in serum at 100 mg/kg, po administered 1 hr post potassium oxonate-challenge relative to allopurinol. The class given is functional.
Data set [5] is described as follows: Tmax in rat at 100 mg/kg, po. On the set-up: dose 100 mg/kg, route oral. In kind it is ADME, organism-based. The conditions noted are these: in vivo.
The nature of data set [6]: Half life in rat at 100 mg/kg, po. The conditions noted are these: in vivo. On the set-up: dose 100 mg/kg, route oral. In kind it is ADME, organism-based.
Data set [7] in a line: AUClast in rat at 100 mg/kg, po. In kind it is ADME, organism-based. On the set-up: time 0 - last, dose 100 mg/kg, route oral. The settings on record: plasma.
A short description of data set [8]: Cmax in rat at 100 mg/kg, po. The settings on record: in vivo. The class given is ADME, organism-based. On the set-up: dose 100 mg/kg, route oral.
Data set [9] can be described thus: AUC (0 to infinity) in rat at 100 mg/kg, po. The class given is ADME, organism-based. On the set-up: time infinity, dose 100 mg/kg, route oral. The conditions noted are these: plasma.
In data set [10] the test system is Rattus norvegicus. Nature of the data set: Antihyperuricemic activity in fasted rat assessed as reduction in potassium oxonate-induced uric acid level in serum at 100 mg/kg, po administered 1 hr post potassium oxonate-challenge relative to vehicle-treated control. In kind it is functional. On the set-up: scale not given: the % may be the effect or the level left.

Data set [11] is described as follows: AUC (0 to infinity) in rat at 50 mg/kg, ip. In kind it is ADME, organism-based. Further details: time infinity, dose 50 mg/kg, route intraperitoneal. The conditions noted are these: plasma.
The nature of data set [12]: Tmax in rat at 50 mg/kg, ip. The class given is ADME, organism-based. On the set-up: dose 50 mg/kg, route intraperitoneal. The settings on record: in vivo.
A short description of data set [13]: Half life in rat at 50 mg/kg, ip. In kind it is ADME, organism-based. On the set-up: dose 50 mg/kg, route intraperitoneal. The conditions noted are these: in vivo.
The nature of data set [14]: Cmax in rat at 50 mg/kg, ip. The class given is ADME, organism-based. On the set-up: dose 50 mg/kg, route intraperitoneal. The settings on record: in vivo.
Data set [15] is described as follows: AUClast in rat at 50 mg/kg, ip. In kind it is ADME, organism-based. Further details: time 0 - last, dose 50 mg/kg, route intraperitoneal. The settings on record: plasma.
Data set [16] relates to Rattus norvegicus. The data set can be described thus: Antihyperuricemic activity in fasted rat assessed as reduction in potassium oxonate-induced uric acid level in serum at 50 mg/kg, ip administered 1 hr post potassium oxonate-challenge relative to vehicle-treated control. The settings on record: route intraperitoneal. The class given is functional. On the set-up: scale not given: the % may be the effect or the level left.

In data set [17] the test system is Rattus norvegicus. The data set can be described thus: Antihyperuricemic activity in fasted rat assessed as reduction in potassium oxonate-induced uric acid level in serum at 200 mg/kg, po administered 1 hr post potassium oxonate-challenge relative to vehicle-treated control. In kind it is functional, organism-based. Further details: dose 200 mg/kg.
A short description of data set [18]: Half life in rat at 10 mg/kg, po. The class given is ADME, organism-based. Further details: dose 10 mg/kg, route oral. The conditions noted are these: in vivo.
A short description of data set [19]: Initial plasma concentration in rat at 2 mg/kg iv. In kind it is ADME, organism-based. On the set-up: dose 2 mg/kg, route intravenous.
A short description of data set [20]: Cmax in rat at 10 mg/kg, po. On the set-up: dose 10 mg/kg, route oral. The settings on record: in vivo. In kind it is ADME, organism-based.
Data set [21] can be described thus: Half life in rat at 2 mg/kg, iv. In kind it is ADME, organism-based. On the set-up: dose 2 mg/kg, route intravenous. The settings on record: in vivo.
The nature of data set [22]: AUClast in rat at 10 mg/kg, po. In kind it is ADME, organism-based. On the set-up: time 0 - last, dose 10 mg/kg, route oral. The settings on record: plasma.
The nature of data set [23]: Tmax in rat at 2 mg/kg, iv. The class given is ADME, organism-based. On the set-up: dose 2 mg/kg, route intravenous. The conditions noted are these: in vivo.
Data set [24] can be described thus: AUC (0 to infinity) in rat at 10 mg/kg, po. The settings on record: plasma. The class given is ADME, organism-based. On the set-up: time infinity, dose 10 mg/kg, route oral.
Data set [25] can be described thus: Tmax in rat at 10 mg/kg, po. In kind it is ADME, organism-based. Further details: dose 10 mg/kg, route oral. The settings on record: in vivo.
Data set [26] can be described thus: Clearance in rat at 2 mg/kg, iv. On the set-up: dose 2 mg/kg, route intravenous. The class given is ADME, organism-based. The settings on record: in vivo.
Data set [27] is described as follows: AUC (0 to infinity) in rat at 2 mg/kg, iv. The class given is ADME, organism-based. On the set-up: time infinity, dose 2 mg/kg, route intravenous. The settings on record: plasma.
Data set [28] in a line: AUClast in rat at 2 mg/kg, iv. On the set-up: time 0 - last, dose 2 mg/kg, route intravenous. The class given is ADME, organism-based. The conditions noted are these: plasma.
The nature of data set [29]: Cmax in rat at 2 mg/kg, iv. In kind it is ADME, organism-based. On the set-up: dose 2 mg/kg, route intravenous. The conditions noted are these: in vivo.
The nature of data set [30]: Volume of distribution in rat at 2 mg/kg, iv. In kind it is ADME, organism-based. On the set-up: dose 2 mg/kg, route intravenous. The conditions noted are these: in vivo.

Sequence of Xanthine dehydrogenase/oxidase (P47989 whole entry): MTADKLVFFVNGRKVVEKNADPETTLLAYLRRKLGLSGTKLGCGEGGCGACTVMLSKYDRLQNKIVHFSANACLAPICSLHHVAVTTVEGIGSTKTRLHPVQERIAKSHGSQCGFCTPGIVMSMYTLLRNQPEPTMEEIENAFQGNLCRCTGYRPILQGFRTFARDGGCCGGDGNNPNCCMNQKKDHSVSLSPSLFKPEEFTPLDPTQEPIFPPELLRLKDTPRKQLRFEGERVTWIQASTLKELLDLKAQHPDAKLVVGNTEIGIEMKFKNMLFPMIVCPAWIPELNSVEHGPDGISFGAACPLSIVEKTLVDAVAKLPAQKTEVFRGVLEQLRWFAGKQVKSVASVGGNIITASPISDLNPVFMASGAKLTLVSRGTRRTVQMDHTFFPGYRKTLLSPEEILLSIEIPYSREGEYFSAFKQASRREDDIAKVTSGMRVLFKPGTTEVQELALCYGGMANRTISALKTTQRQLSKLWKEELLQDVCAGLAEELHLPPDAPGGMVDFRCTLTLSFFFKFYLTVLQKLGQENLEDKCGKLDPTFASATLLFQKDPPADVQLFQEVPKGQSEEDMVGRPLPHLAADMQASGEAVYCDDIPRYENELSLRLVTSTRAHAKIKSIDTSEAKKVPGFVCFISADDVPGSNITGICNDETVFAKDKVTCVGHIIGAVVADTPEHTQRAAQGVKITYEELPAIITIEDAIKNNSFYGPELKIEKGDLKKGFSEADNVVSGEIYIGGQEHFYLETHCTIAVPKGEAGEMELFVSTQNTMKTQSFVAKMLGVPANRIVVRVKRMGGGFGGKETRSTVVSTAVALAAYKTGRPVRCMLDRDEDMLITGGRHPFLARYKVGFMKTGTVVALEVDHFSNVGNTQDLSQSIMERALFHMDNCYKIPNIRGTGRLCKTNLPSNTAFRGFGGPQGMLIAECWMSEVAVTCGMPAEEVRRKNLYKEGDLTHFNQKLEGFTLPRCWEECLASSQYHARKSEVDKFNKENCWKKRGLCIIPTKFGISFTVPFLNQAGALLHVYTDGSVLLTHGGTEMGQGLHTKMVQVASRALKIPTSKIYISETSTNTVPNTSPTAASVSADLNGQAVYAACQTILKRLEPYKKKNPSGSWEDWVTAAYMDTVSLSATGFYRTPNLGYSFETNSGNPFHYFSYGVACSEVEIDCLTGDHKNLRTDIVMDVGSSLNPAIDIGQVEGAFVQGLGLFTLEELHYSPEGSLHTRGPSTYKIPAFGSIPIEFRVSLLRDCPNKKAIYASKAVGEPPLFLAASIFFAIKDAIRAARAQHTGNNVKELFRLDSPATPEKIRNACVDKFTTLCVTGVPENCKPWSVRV

`Nc1nc(O)cc(-c2ccc(Oc3ccccc3)cc2)n1` showed an IC50 in data set [1] of 2470 nM.
The same measure, in the same setting: the value for `Nc1nc(O)cc(-c2ccc(N3CCOCC3)cc2)n1` was 16500 nM; that for `Nc1nc(O)cc(-c2ccc(OCCCO)cc2)n1` was 9240 nM; that for `Nc1nc(-c2ccc(O)cc2)cc(=O)[nH]1` was over 30000 nM.
On to `Oc1ncnc2[nH]ncc12` [ALLOPURINOL], for which the Activity in the data set with Rattus norvegicus [2] is listed as 177%; in the data set with Rattus norvegicus [3] it was 130%.
In data set [1], `CCCCOc1ccc(-c2cc(=O)[nH]c(N)n2)cc1` yielded an IC50 of 2100 nM.
Consider `CC(C)COc1ccc(-c2cc(O)nc(N)n2)cc1`, for which the Activity was 77% in the data set with Rattus norvegicus [2] and 23.7% in the data set on Rattus norvegicus [10]. The Efficacy with Rattus norvegicus [4] is recorded as 18%. Moreover, in data set [5], the Tmax was 0.5 h. In [6], the half-life was 3.42 h. The compound further came in with an AUC(0-t) in data set [7] of 4390 ng·h/mL. In data set [8], this compound returned a Cmax of 5.16 µM. In data set [9], this compound yielded an AUC(0-inf) of 5680 ng·h/mL.
As for `CC(C)COc1ccc(-c2cc(=O)[nH]c(N)n2)cc1C(N)=O`, half-maximal inhibition in data set [1] (IC50) was put at 1920 nM.
On the same count and under the same terms, the value for `CCCCSc1ccc(-c2cc(=O)[nH]c(N)n2)cc1` was 1630 nM.
With `COc1ccc(-c2cc(=O)[nH]c(N)n2)cc1`, in data set [5], the Tmax is 0.25 h. Besides, the half-life in data set [6] was 6.59 h. For the same compound, the area under the curve AUC(0-t) in [7] amounted to 4080 ng·h/mL. The Cmax in data set [8] turned out to be 23.5 µM. For the same compound, in [9], the AUC(0-inf) was 4110 ng·h/mL.
In data set [1], `CC(C)COc1ccc(-c2cc(=O)[nH]c(N)n2)cc1N` had an IC50 of 6720 nM.
In the case of `CC(C)COc1ccc(-c2cc(O)nc(N)n2)cc1[N+](=O)[O-]`, the Activity was determined as 133% in the data set on Rattus norvegicus [2] and 93% in the data set with Rattus norvegicus [10]. Also, in [11], the AUC(0-inf) is 17600 ng·h/mL. Also, the midpoint of inhibition in data set [1], the IC50, lay at 140 nM. The Tmax in data set [12] was 2 h. The half-life in data set [13] was 12.2 h. For the same compound, in data set [14], the Cmax was determined as 9.59 µM. For the same compound, in data set [15], the AUC(0-t) came to 14000 ng·h/mL.
As for `COc1cc(-c2cc(O)nc(N)n2)ccc1OCC(C)C`, in [11], the AUC(0-inf) is 27700 ng·h/mL. The compound also yielded an IC50 in data set [1] of 950 nM. Also, in data set [12], the Tmax was 2 h. For the same compound, the half-life in [13] is 0.85 h. The highest level in data set [14] (Cmax) was 34.3 µM. Besides, the Activity with Rattus norvegicus [16] is on record as 55%. In addition, the AUC(0-t) in [15] was found to be 27600 ng·h/mL.
As to `CC(C)Sc1ccc(-c2cc(O)nc(N)n2)cc1`, in data set [1], it took 2440 nM to reach half-maximal inhibition (IC50).
`CC(C)COc1ccc(-c2cc(O)nc(N)n2)cc1C#N`: in the data set with Rattus norvegicus [2], the Activity is listed as 124%. The outcome in the data set with Rattus norvegicus [17] was inactive.
For the compound `CC(C)COc1ccc(-c2cc(=O)[nH]c(N)n2)cc1C#N`, the half-life was 11.4 h in [18] and 0.63 h in [21]. In addition, the C0 in data set [19] turned out to be 1360 ng/mL. For the same compound, the Cmax was 0.23 µM in data set [20] and 4.19 µM in data set [29]. Besides, the AUC(0-t) in [22] is 200 ng·h/mL; in data set [28], 470 ng·h/mL. Besides, the results for the Tmax in [23] and in [25] were 1.8 min and 0.19 h, respectively. Besides, the total exposure AUC(0-inf) in [24] worked out at 310 ng·h/mL; in [27] it was 480 ng·h/mL. This compound also showed a clearance in data set [26] of 71.3 mL/min/kg. Also, in data set [30], the distribution volume (Vd) was 3.83 L/kg.
In the case of `Cc1nc(-c2ccc(OCC(C)C)c(C#N)c2)sc1C(=O)O` [FEBUXOSTAT], the Activity in the data set on Rattus norvegicus [2] is recorded as 181%; with Rattus norvegicus [3], 180%. This compound came in with an IC50 in data set [1] of 30 nM.
`Nc1nc(-c2ccc(-c3ccccc3)cc2)cc(=O)[nH]1`: the time to peak (Tmax) came out at 0.88 h in data set [5] and 3.33 h in [12]. For the same compound, the figures for the half-life in data set [6] and in data set [13] were 2.85 h and 5.52 h, respectively. Besides, the AUC(0-t) came out at 600 ng·h/mL in [7] and 21900 ng·h/mL in [15]. The AUC(0-inf) in [11] came out at 23100 ng·h/mL; in [9], 890 ng·h/mL. Besides, the Cmax is 0.81 µM in data set [8] and 7.13 µM in [14].
`CC(C)Cc1ccc(-c2cc(O)nc(N)n2)cc1` gave an IC50 in data set [1] of 4950 nM.
Consider `CC(C)COc1ccc(-c2cc(=O)[nH]c(N)n2)cc1OC(F)(F)F`, for which the IC50 in [1] is over 20000 nM.

A word on the IC50: it is the concentration that inhibits the measured activity by half. Broadly, the Tmax is the time at which the peak concentration occurs. Broadly, the half-life is how long it takes for the measured level to halve. A word on the AUC(0-t): it is the area under the concentration-time curve up to a stated or last time point. By Cmax is commonly meant the highest concentration seen after dosing. The AUC(0-inf) is total exposure, with the tail of the curve extrapolated. As usually defined, the clearance is a measure of how efficiently the substance is removed, as volume per time. As a reminder, the Vd is the apparent volume that relates the amount in the body to the concentration in plasma or blood.
